From ChEMBL document CHEMBL1287706 (Bioorg Med Chem, 2010)
Counter-ions that a name gives are not always drawn.

Tests used:
[1] = molecular target: Sodium-dependent serotonin transporter (Rattus norvegicus, UniProt P31652); parameters: species or system Sprague-Dawley;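 further: radioligand competition using [3H]citalopram bound to serotonin transporter in Sprague-Dawley rat brain tissue, 1 h incubation, bound radioactivity quantified by liquid scintillation counting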
Description: Displacement of [3H]citalopram from serotonin transporter in Sprague-Dawley rat brain after 1 hr by liquid scintillation counting

[2] = molecular target: Sodium-dependent dopamine transporter (Rattus norvegicus, UniProt P23977); test: biochemical; assay type: tissue-based, Sprague-Dawley, Brain
Sodium-dependent dopamine transporter, sequence (P23977 whole entry): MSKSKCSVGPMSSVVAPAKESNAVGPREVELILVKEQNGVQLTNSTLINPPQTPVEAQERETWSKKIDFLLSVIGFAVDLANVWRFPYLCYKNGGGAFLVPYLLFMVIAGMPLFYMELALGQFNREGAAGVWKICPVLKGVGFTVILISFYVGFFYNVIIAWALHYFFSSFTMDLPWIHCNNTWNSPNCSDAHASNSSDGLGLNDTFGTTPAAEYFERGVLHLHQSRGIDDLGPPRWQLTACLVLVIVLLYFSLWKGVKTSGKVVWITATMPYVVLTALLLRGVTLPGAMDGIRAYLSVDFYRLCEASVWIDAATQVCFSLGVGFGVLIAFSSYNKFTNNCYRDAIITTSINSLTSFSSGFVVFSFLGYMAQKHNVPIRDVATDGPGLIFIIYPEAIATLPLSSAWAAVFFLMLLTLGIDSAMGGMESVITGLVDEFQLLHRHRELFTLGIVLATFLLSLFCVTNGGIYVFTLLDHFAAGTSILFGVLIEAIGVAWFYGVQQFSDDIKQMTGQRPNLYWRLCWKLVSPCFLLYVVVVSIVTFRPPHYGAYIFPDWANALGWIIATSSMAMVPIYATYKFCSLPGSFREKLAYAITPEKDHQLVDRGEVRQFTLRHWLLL

Transporter = Transporter (Rattus norvegicus, UniProt Q63380); test: biochemical; assay type: tissue-based, Sprague-Dawley, Frontal cortex
Transporter, sequence (Q63380 whole entry): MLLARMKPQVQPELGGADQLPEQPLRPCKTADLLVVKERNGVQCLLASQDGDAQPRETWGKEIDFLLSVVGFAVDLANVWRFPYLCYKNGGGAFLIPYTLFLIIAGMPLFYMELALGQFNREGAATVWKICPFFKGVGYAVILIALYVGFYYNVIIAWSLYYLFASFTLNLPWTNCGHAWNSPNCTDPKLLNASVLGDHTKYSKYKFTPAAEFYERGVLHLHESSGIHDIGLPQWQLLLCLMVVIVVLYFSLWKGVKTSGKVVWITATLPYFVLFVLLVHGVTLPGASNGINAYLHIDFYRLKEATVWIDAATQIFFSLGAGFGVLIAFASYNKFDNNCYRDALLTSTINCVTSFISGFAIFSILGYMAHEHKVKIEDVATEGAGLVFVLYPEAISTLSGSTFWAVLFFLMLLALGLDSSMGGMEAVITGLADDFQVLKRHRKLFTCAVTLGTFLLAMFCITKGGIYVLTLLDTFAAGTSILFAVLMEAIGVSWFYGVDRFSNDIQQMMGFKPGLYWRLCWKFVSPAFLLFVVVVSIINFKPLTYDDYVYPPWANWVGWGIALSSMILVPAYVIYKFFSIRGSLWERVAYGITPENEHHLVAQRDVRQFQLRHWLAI
Description: Displacement of [3H]nisoxetine from norepinephrine transporter in Sprague-Dawley rat frontal cortex after 1 hr by liquid scintillation counting

Sodium-dependent serotonin transporter, sequence (P31652 whole entry): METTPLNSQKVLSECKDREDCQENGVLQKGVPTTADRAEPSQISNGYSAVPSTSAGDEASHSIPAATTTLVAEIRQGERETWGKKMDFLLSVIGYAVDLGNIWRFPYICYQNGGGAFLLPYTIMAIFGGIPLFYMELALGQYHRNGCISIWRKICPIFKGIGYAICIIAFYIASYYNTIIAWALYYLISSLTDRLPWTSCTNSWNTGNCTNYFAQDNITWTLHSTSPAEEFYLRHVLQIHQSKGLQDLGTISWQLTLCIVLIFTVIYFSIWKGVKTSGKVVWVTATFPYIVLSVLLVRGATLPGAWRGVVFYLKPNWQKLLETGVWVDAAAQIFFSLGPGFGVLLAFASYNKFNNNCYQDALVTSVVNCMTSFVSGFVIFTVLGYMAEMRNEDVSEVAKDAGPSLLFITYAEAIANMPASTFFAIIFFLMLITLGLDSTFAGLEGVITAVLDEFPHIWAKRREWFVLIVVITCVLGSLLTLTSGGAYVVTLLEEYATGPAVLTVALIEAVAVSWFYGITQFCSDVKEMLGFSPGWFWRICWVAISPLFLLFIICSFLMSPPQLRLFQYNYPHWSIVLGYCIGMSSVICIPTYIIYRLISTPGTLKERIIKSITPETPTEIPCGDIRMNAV

SMILES | Ki [1] [nM] | Ki [2] [nM] | Ki (Transporter) [nM]
CN1CCC(C(=O)OCc2ccc(-c3ccccc3)cc2)(c2ccc(Cl)c(Cl)c2)CC1 | 10.9 | 5630 | 
O=C(OCc1ccc([N+](=O)[O-])cc1)C1(c2ccc3ccccc3c2)CCNCC1 | 2 | 732 | 937
O=C(OCc1ccc([N+](=O)[O-])cc1)C1(c2ccc(Cl)c(Cl)c2)CCNCC1 | 6.4 | 1300 | 1440
CN1CCC(C(=O)OCc2ccccc2)(c2ccc(Cl)c(Cl)c2)CC1 | 3.9 | 2970 | 901
CN1CCC(C(=O)OCc2ccc(I)cc2)(c2ccc(Cl)c(Cl)c2)CC1 | 13.2 | 3470 | 
COc1ccc(COC(=O)C2(c3ccc4ccccc4c3)CCNCC2)cc1 | 2.9 | 889 | 2350
O=C(OCc1ccc(Cl)c(Cl)c1)C1(c2ccc3ccccc3c2)CCNCC1 | 26.5 | 3210 | 16600
O=C(OCc1ccccc1)C1(c2ccc(Cl)c(Cl)c2)CCNCC1 | 9.2 | 919 | 
COc1ccc(COC(=O)C2(c3ccc(I)cc3)CCNCC2)cc1 | 0.6 | 2920 | 2730
CCOC(=O)C1(c2ccc(-c3ccccc3)cc2)CCNCC1 | 3.3 | 3210 | 
CCOC(=O)C1(c2ccc3ccccc3c2)CCNCC1 | 14.1 | 710 | 
CCOC(=O)C1(c2ccc3ccccc3c2)CCN(C)CC1 |  |  | 71000
CN1CCC(C(=O)OCc2ccc3ccccc3c2)(c2ccc(Cl)c(Cl)c2)CC1 | 9.9 | 4910 | 2550
CN1CCC(C(=O)OCc2ccccc2)(c2ccc(-c3ccccc3)cc2)CC1 | 49.5 | 2310 | 
O=C(OCc1ccc(Cl)c(Cl)c1)C1(c2ccc(Cl)c(Cl)c2)CCNCC1 | 30.2 | 2890 | 11900
O=C(OCc1ccc(Cl)c(Cl)c1)C1(c2ccc(I)cc2)CCNCC1 | 5.9 | 4340 | 6060
O=C(OCc1ccccc1)C1(c2ccc(-c3ccccc3)cc2)CCNCC1 | 2 | 1110 | 
CN1CCC(C(=O)OCc2ccc(Cl)c(Cl)c2)(c2ccc(Cl)c(Cl)c2)CC1 | 4.3 | 5230 | 
COc1ccc(COC(=O)C2(c3ccc(Cl)c(Cl)c3)CCNCC2)cc1 | 10.2 | 1260 | 3130
COc1ccc(COC(=O)C2(c3ccc(Cl)c(Cl)c3)CCN(C)CC2)cc1 | 1.7 | 2790 | 300
O=C(OCc1ccc([N+](=O)[O-])cc1)C1(c2ccc(I)cc2)CCNCC1 | 5.9 | 1780 | 2070
CN1CCC(C(=O)OCc2ccc(Br)cc2)(c2ccc(Cl)c(Cl)c2)CC1 | 7 | 2560 | 580
CCOC(=O)C1(c2ccc(Cl)c(Cl)c2)CCNCC1 | 21.6 | 321 | 
CCOC(=O)C1(c2ccc(I)cc2)CCN(C)CC1 |  |  | 519000
Fc1ccc([C@@H]2CCNC[C@H]2COc2ccc3c(c2)OCO3)cc1 [PAROXETINE HYDROCHLORIDE] |  |  | 59
O=C(OCc1ccc(C(F)(F)F)cc1)C1(c2ccc(Cl)c(Cl)c2)CCNCC1 | 46.7 | 2240 | 7900
CCOC(=O)C1(c2ccc(I)cc2)CCNCC1 | 2.5 | 3500 | 
CN1CCC(C(=O)OCc2ccc([N+](=O)[O-])cc2)(c2ccc(Cl)c(Cl)c2)CC1 | 1 | 1530 | 333
